Reference: patent US10577317B2, “Crystal forms and production methods thereof” (Sunovion Pharmaceuticals Inc., priority 2017, dated 2020)
Like-named read-outs stand apart in the source and are kept apart here.

What was measured:
Format in all cases: physicochemical
[1] = Solubility (mg/mL) in water, buffers, simulated fluids and organic solvents (Table 1)
[2] = DVS water sorption isotherm, 25° C. scanned over 0 to 95% relative humidity (hygroscopicity)
Source text: In various embodiments, the hygroscopicity of crystal forms of racemic amisulpride, enantiomeric amisulpride, and enantiomeric amisulpride solvates are characterized by dynamic vapor sorption (DVS). DVS is a gravimetric technique that measures how much of a solvent is absorbed by a sample by varying the vapor concentration surrounding the sample (e.g., relative humidity) and measuring the change in mass. In the present application, DVS is used to generate water sorption isotherms, which represent the equilibrium amount of vapor sorbed as a function of steady state relative vapor pressure at a constant temperature.

[3] = Solid form stability on storage at 25° C. and 60% relative humidity; conditions: after 4 months at 25° C. and 60% relative humidity (RH)
[4] = DVS, 25° C., 0 to 95% relative humidity

## CCN1CCC[C@H]1CNC(=O)c1cc(S(=O)(=O)CC)c(N)cc1OC [(S)-amisulpride Form A′, S-4-Amino-N-[(1-ethyl-2-pyrrolidinyl)methyl]-5-(ethylsulfonyl)-2-methoxybenzamide]
[1]; aqueous buffer, 0.05M Acetate Buffer, solution pH 4.5, read-out: Solubility (mg/mL): 0.05M Acetate Buffer
  solubility: > 100 mg/mL
[1]; pH 1.1, Simulated Gastric Fluid (no enzyme), pH adjusted to 1.1 (Form A), 1.2 (Form A′), read-out: Solubility (mg/mL): Simulated Gastric Fluid (no enzyme)
  solubility: > 100 mg/mL
[1]; pH 6.7, fassgf or other biorelevant, Simulated Intestinal Fluid (no enzyme), pH adjusted to 6.7 (Form A), 6.9 (Form A′), read-out: Solubility (mg/mL): Simulated Intestinal Fluid (no enzyme)
  solubility: > 100 mg/mL
[2]; [4]
  hygroscopicity: substantially non-hygroscopic (less than a 1% maximum mass change in water sorption isotherms, at 25 °C scanned over 0 to 95% relative humidity)
  maximum mass change in water sorption isotherms: 0.35%
[2]; DVS, Tables 6B and 6C only
  average maximum mass change based on the data of Tables 6B and 6C: about 0.16%
[2]; DVS, average over the samples of Tables 6A-6C (Form A′) or 6D-6E (Form A)
  average maximum mass change: about 0.22%
[2]; FIG. 3D, RH 0 %, elapse time 60.72 min, sorption
  Change Mass: 0.00 wt %
[2]; FIG. 3D, RH 1 %, elapse time 32.02 min, desorption
  Change Mass: −0.01 wt %
[2]; FIG. 3D, RH 10 %, elapse time 31.00 min, desorption
  Change Mass: 0.01 wt %
[2]; FIG. 3D, RH 10 %, elapse time 33.25 min, sorption
  Change Mass: 0.03 wt %
[2]; FIG. 3D, RH 20 %, elapse time 31.89 min, sorption
  Change Mass: 0.05 wt %
[2]; FIG. 3D, RH 20 %, elapse time 32.05 min, desorption
  Change Mass: 0.03 wt %
[2]; FIG. 3D, RH 30 %, elapse time 32.20 min, sorption
  Change Mass: 0.07 wt %
[2]; FIG. 3D, RH 30 %, elapse time 62.67 min, desorption
  Change Mass: 0.05 wt %
[2]; FIG. 3D, RH 40 %, elapse time 31.41 min, desorption
  Change Mass: 0.07 wt %
[2]; FIG. 3D, RH 40 %, elapse time 31.53 min, sorption
  Change Mass: 0.09 wt %
[2]; FIG. 3D, RH 50 %, elapse time 31.95 min, sorption
  Change Mass: 0.11 wt %
[2]; FIG. 3D, RH 50 %, elapse time 32.12 min, desorption
  Change Mass: 0.08 wt %
[2]; FIG. 3D, RH 60 %, elapse time 31.87 min, sorption
  Change Mass: 0.13 wt %
[2]; FIG. 3D, RH 60 %, elapse time 32.10 min, desorption
  Change Mass: 0.11 wt %
[2]; FIG. 3D, RH 70 %, elapse time 31.10 min, sorption
  Change Mass: 0.16 wt %
[2]; FIG. 3D, RH 70 %, elapse time 31.50 min, desorption
  Change Mass: 0.14 wt %
[2]; FIG. 3D, RH 75 %, elapse time 31.01 min, desorption
  Change Mass: 0.16 wt %
[2]; FIG. 3D, RH 75 %, elapse time 31.28 min, sorption
  Change Mass: 0.18 wt %
[2]; FIG. 3D, RH 80 %, elapse time 31.43 min, sorption
  Change Mass: 0.19 wt %
[2]; FIG. 3D, RH 80 %, elapse time 32.11 min, desorption
  Change Mass: 0.17 wt %
[2]; FIG. 3D, RH 90 %, elapse time 31.35 min, desorption
  Change Mass: 0.28 wt %
[2]; FIG. 3D, RH 90 %, elapse time 31.97 min, sorption
  Change Mass: 0.25 wt %
[2]; FIG. 3D, RH 95 %, elapse time 32.77 min, sorption
  Change Mass: 0.34 wt %
[2]; FIG. 3D, RH 95 %, elapse time 36.47 min, desorption
  Change Mass: 0.35 wt %
[2]; FIG. 3E, RH 1.33 %, elapse time 60.4 min
  Change Mass: 0.000 wt %
[2]; FIG. 3E, RH 5.06 %, elapse time 923.6 min
  Change Mass: −0.028 wt %
[2]; FIG. 3E, RH 5.09 %, elapse time 590.9 min
  Change Mass: −0.004 wt %
[2]; FIG. 3E, RH 5.15 %, elapse time 243.7 min
  Change Mass: −0.010 wt %
[2]; FIG. 3E, RH 9.91 %, elapse time 260.3 min
  Change Mass: −0.006 wt %
[2]; FIG. 3E, RH 9.94 %, elapse time 598.9 min
  Change Mass: 0.000 wt %
[2]; FIG. 3E, RH 10.06 %, elapse time 582.9 min
  Change Mass: 0.003 wt %
[2]; FIG. 3E, RH 10.08 %, elapse time 915.6 min
  Change Mass: −0.023 wt %
[2]; FIG. 3E, RH 14.90 %, elapse time 606.9 min
  Change Mass: 0.004 wt %
[2]; FIG. 3E, RH 14.99 %, elapse time 270.3 min
  Change Mass: 0.000 wt %
[2]; FIG. 3E, RH 15.08 %, elapse time 574.9 min
  Change Mass: 0.010 wt %
[2]; FIG. 3E, RH 15.12 %, elapse time 907.6 min
  Change Mass: −0.017 wt %
[2]; FIG. 3E, RH 19.74 %, elapse time 278.3 min
  Change Mass: 0.006 wt %
[2]; FIG. 3E, RH 19.88 %, elapse time 614.9 min
  Change Mass: 0.009 wt %
[2]; FIG. 3E, RH 20.10 %, elapse time 566.9 min
  Change Mass: 0.017 wt %
[2]; FIG. 3E, RH 20.12 %, elapse time 899.6 min
  Change Mass: −0.012 wt %
[2]; FIG. 3E, RH 24.83 %, elapse time 623.9 min
  Change Mass: 0.014 wt %
[2]; FIG. 3E, RH 24.90 %, elapse time 891.6 min
  Change Mass: −0.007 wt %
[2]; FIG. 3E, RH 24.92 %, elapse time 287.8 min
  Change Mass: 0.013 wt %
[2]; FIG. 3E, RH 24.95 %, elapse time 558.9 min
  Change Mass: 0.024 wt %
[2]; FIG. 3E, RH 29.82 %, elapse time 296.8 min
  Change Mass: 0.019 wt %
[2]; FIG. 3E, RH 29.84 %, elapse time 632.9 min
  Change Mass: 0.019 wt %
[2]; FIG. 3E, RH 30.09 %, elapse time 551.4 min
  Change Mass: 0.031 wt %
[2]; FIG. 3E, RH 30.10 %, elapse time 884.1 min
  Change Mass: −0.001 wt %
[2]; FIG. 3E, RH 34.80 %, elapse time 305.8 min
  Change Mass: 0.026 wt %
[2]; FIG. 3E, RH 34.87 %, elapse time 641.9 min
  Change Mass: 0.024 wt %
[2]; FIG. 3E, RH 34.94 %, elapse time 875.6 min
  Change Mass: 0.005 wt %
[2]; FIG. 3E, RH 34.95 %, elapse time 543.9 min
  Change Mass: 0.038 wt %
[2]; FIG. 3E, RH 39.84 %, elapse time 314.8 min
  Change Mass: 0.033 wt %
[2]; FIG. 3E, RH 39.90 %, elapse time 865.6 min
  Change Mass: 0.011 wt %
[2]; FIG. 3E, RH 39.92 %, elapse time 533.9 min
  Change Mass: 0.045 wt %
[2]; FIG. 3E, RH 39.94 %, elapse time 650.9 min
  Change Mass: 0.028 wt %
[2]; FIG. 3E, RH 44.92 %, elapse time 659.9 min
  Change Mass: 0.034 wt %
[2]; FIG. 3E, RH 45.02 %, elapse time 325.8 min
  Change Mass: 0.040 wt %
[2]; FIG. 3E, RH 45.04 %, elapse time 523.9 min
  Change Mass: 0.053 wt %
[2]; FIG. 3E, RH 45.07 %, elapse time 856.1 min
  Change Mass: 0.018 wt %
[2]; FIG. 3E, RH 49.78 %, elapse time 334.8 min
  Change Mass: 0.047 wt %
[2]; FIG. 3E, RH 49.88 %, elapse time 668.9 min
  Change Mass: 0.040 wt %
[2]; FIG. 3E, RH 50.07 %, elapse time 845.0 min
  Change Mass: 0.026 wt %
[2]; FIG. 3E, RH 50.10 %, elapse time 512.9 min
  Change Mass: 0.060 wt %
[2]; FIG. 3E, RH 54.90 %, elapse time 345.8 min
  Change Mass: 0.055 wt %
[2]; FIG. 3E, RH 54.96 %, elapse time 679.9 min
  Change Mass: 0.046 wt %
[2]; FIG. 3E, RH 55.12 %, elapse time 501.9 min
  Change Mass: 0.067 wt %
[2]; FIG. 3E, RH 55.14 %, elapse time 834.0 min
  Change Mass: 0.035 wt %
[2]; FIG. 3E, RH 59.94 %, elapse time 356.8 min
  Change Mass: 0.062 wt %
[2]; FIG. 3E, RH 59.95 %, elapse time 688.9 min
  Change Mass: 0.053 wt %
[2]; FIG. 3E, RH 60.08 %, elapse time 490.9 min
  Change Mass: 0.075 wt %
[2]; FIG. 3E, RH 60.19 %, elapse time 823.0 min
  Change Mass: 0.044 wt %
[2]; FIG. 3E, RH 64.92 %, elapse time 699.9 min
  Change Mass: 0.060 wt %
[2]; FIG. 3E, RH 65.00 %, elapse time 365.8 min
  Change Mass: 0.071 wt %
[2]; FIG. 3E, RH 65.13 %, elapse time 814.0 min
  Change Mass: 0.053 wt %
[2]; FIG. 3E, RH 65.14 %, elapse time 479.9 min
  Change Mass: 0.081 wt %
[2]; FIG. 3E, RH 69.90 %, elapse time 710.9 min
  Change Mass: 0.067 wt %
[2]; FIG. 3E, RH 69.95 %, elapse time 376.8 min
  Change Mass: 0.081 wt %
[2]; FIG. 3E, RH 70.05 %, elapse time 468.9 min
  Change Mass: 0.088 wt %
[2]; FIG. 3E, RH 70.16 %, elapse time 803.0 min
  Change Mass: 0.062 wt %
[2]; FIG. 3E, RH 74.60 %, elapse time 385.8 min
  Change Mass: 0.089 wt %
[2]; FIG. 3E, RH 74.67 %, elapse time 719.9 min
  Change Mass: 0.074 wt %
[2]; FIG. 3E, RH 75.19 %, elapse time 457.9 min
  Change Mass: 0.096 wt %
[2]; FIG. 3E, RH 75.43 %, elapse time 792.0 min
  Change Mass: 0.073 wt %
[2]; FIG. 3E, RH 79.52 %, elapse time 728.9 min
  Change Mass: 0.081 wt %
[2]; FIG. 3E, RH 79.61 %, elapse time 394.8 min
  Change Mass: 0.098 wt %
[2]; FIG. 3E, RH 80.43 %, elapse time 783.0 min
  Change Mass: 0.084 wt %
[2]; FIG. 3E, RH 80.44 %, elapse time 448.8 min
  Change Mass: 0.105 wt %
[2]; FIG. 3E, RH 84.52 %, elapse time 403.8 min
  Change Mass: 0.109 wt %
[2]; FIG. 3E, RH 84.80 %, elapse time 737.9 min
  Change Mass: 0.090 wt %
[2]; FIG. 3E, RH 85.39 %, elapse time 774.0 min
  Change Mass: 0.096 wt %
[2]; FIG. 3E, RH 85.43 %, elapse time 439.8 min
  Change Mass: 0.117 wt %
[2]; FIG. 3E, RH 89.49 %, elapse time 412.8 min
  Change Mass: 0.123 wt %
[2]; FIG. 3E, RH 89.52 %, elapse time 746.9 min
  Change Mass: 0.103 wt %
[2]; FIG. 3E, RH 90.18 %, elapse time 430.8 min
  Change Mass: 0.129 wt %
[2]; FIG. 3E, RH 90.24 %, elapse time 765.0 min
  Change Mass: 0.109 wt %
[2]; FIG. 3E, RH 94.51 %, elapse time 421.8 min
  Change Mass: 0.142 wt %
[2]; FIG. 3E, RH 94.81 %, elapse time 756.0 min
  Change Mass: 0.122 wt %
[2]; FIG. 3F, RH 19.77 %, elapse time 317.2 min
  Change Mass: 0.035 wt %
[2]; FIG. 3F, RH 24.90 %, elapse time 326.2 min
  Change Mass: 0.042 wt %
[3]
  thermodynamic stability of crystal form (conversion to other polymorphs or amorphous form): not substantially converting to other polymorphs or amorphous form
